Converted amounts (≈) assume the structure as drawn.
Experiments:
recombinant human DHODH = biological target: T1, recombinant human DHODH (Homo sapiens, UniProt Q02127); assay: recombinant DHODH enzymatic assay (DCIP reduction); format: biochemical; details: 25°C, DCIP reduction at 600 nm
T1 construct: N-terminally truncated (first 29 amino acids) human DHODH; made in house; host or cells: E. coli BL21(DE3)/pDIA17
Method: Enzymatic assay DHODH activity was determined at 25°C following the reduction of DCIP at 600 nm (ε = 18,800 M^-1 cm^-1) on a spectrophotometer. […] The reaction medium used for this contained 50 mM Tris-HCl pH 8.0, 0.1% Triton X-100, 0.1 mM L-DHO, 0.025 mM CoQ1 and 0.06 mM DCIP. The reaction was started by addition of the enzyme.

measles virus = assay: microbe, parasite or virus in culture; details: Measles morbillivirus; for MIC50: 24 h; for IC50: HEK-293T, read-out: IC50 on the measles virus

T1 sequence (Q02127 29-395): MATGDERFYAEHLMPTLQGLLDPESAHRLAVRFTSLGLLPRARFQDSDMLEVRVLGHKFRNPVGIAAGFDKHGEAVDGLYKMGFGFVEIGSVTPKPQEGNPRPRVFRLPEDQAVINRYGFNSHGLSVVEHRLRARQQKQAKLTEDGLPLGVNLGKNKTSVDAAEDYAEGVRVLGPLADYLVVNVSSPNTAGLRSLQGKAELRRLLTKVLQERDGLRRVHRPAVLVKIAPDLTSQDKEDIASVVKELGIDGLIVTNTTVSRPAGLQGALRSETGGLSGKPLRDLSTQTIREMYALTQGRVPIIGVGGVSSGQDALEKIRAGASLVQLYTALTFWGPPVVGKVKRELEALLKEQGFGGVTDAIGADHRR

Row | Compound | IC50 (recombinant human DHODH) | MIC50 (measles virus) | IC50 (measles virus)
1 | CCc1cnc(-n2nc(OC(C)C)c(Oc3c(F)cccc3F)c2C)nc1 [example 8, 2-(4-(2,6-difluorophenoxy)-3-isopropoxy-5-methyl-1H-pyrazol-1-yl)-5-ethylpyrimidine] | 13 ± 1 nM | 0.0005 to 0.05 µM (≈ 0.000187 to 0.0187 µg/mL) | 0.66 nM
2 | Cc1c(Cc2ccccc2F)c(OC(C)C)nn1-c1ncc(C2CC2)cn1 [example 10, 5-cyclopropyl-2-(4-(2-fluorobenzyl)-3-isopropoxy-5-methyl-1H-pyrazol-1-yl)pyrimidine] | 13 ± 2 nM | 0.0005 to 0.05 µM (≈ 0.000183 to 0.0183 µg/mL) | 1.1 nM
3 | Cc1c(Cc2ccccc2)c(OC(C)C)nn1-c1ccc(C2CC2)cn1 [example 20, 2-(4-benzyl-3-isopropoxy-5-methyl-1H-pyrazol-1-yl)-5-cyclopropylpyridine] | 130 ± 5 nM | 0.0005 to 0.05 µM (≈ 0.000174 to 0.0174 µg/mL) | 46 nM
4 | CC(C)Oc1nn(-c2ncc(C3CC3)cn2)cc1Oc1ccccc1F [example 67, 5-cyclopropyl-2-(4-(2-fluorophenoxy)-3-isopropoxy-1H-pyrazol-1-yl)pyrimidine] | 48 ± 7 nM | 0.0005 to 0.05 µM (≈ 0.000177 to 0.0177 µg/mL) | 15 nM
5 | CCOc1nn(-c2ncc(CC)cn2)c(C)c1Oc1ccccc1Br [example 81, 2-(4-(2-bromophenoxy)-3-ethoxy-5-methyl-1H-pyrazol-1-yl)-5-ethylpyrimidine] | 1150 ± 170 nM | 0.05 to 0.5 µM (≈ 0.0202 to 0.202 µg/mL) | 124 nM
6 | CCOc1nn(-c2ccccn2)c(C)c1-c1ccc(C(F)(F)F)cc1 [example 159, 2-(3-ethoxy-5-methyl-4-(4-(trifluoromethyl)phenyl)-1H-pyrazol-1-yl)pyridine] | – | > 5 µM | –
7 | CCOc1nn(-c2ccccn2)c(C)c1-c1ccc(OC)cc1 [example 160, 2-(3-ethoxy-4-(4-methoxyphenyl)-5-methyl-1H-pyrazol-1-yl)pyridine] | – | > 5 µM | –
8 | CCOc1nn(-c2ncc(CC)cn2)c(C)c1-c1ccc(OC)cc1 [example 161, 2-(3-ethoxy-4-(4-methoxyphenyl)-5-methyl-1H-pyrazol-1-yl)-5-ethylpyrimidine] | – | 0.5 to 5 µM (≈ 0.169 to 1.69 µg/mL) | –
9 | CCOc1nn(-c2ccc(C3CC3)cn2)c(C)c1-c1ccccc1 [example 161A, 5-cyclopropyl-2-(3-ethoxy-5-methyl-4-phenyl-1H-pyrazol-1-yl)pyridine] | – | 0.5 to 5 µM (≈ 0.16 to 1.6 µg/mL) | –
10 | CCOc1nn(-c2ccccn2)c(C)c1Cc1ccccc1Cl [example 162, 2-(4-(2-chlorobenzyl)-3-ethoxy-5-methyl-1H-pyrazol-1-yl)pyridine] | – | > 5 µM | –
11 | CCOc1nn(-c2ccccn2)c(C)c1Cc1cccc(Cl)c1 [example 163, 2-(4-(3-chlorobenzyl)-3-ethoxy-5-methyl-1H-pyrazol-1-yl)pyridine] | – | > 5 µM | –
12 | CCOc1nn(-c2ccc(OC)cc2)cc1Cc1ccccc1 [example 164, 4-benzyl-3-ethoxy-1-(4-methoxyphenyl)-1H-pyrazole] | – | > 5 µM | –
13 | Cc1c(Cc2ccccc2)c(OC(C)C)nn1-c1ccccn1 [example 165, 2-(4-benzyl-3-isopropoxy-5-methyl-1H-pyrazol-1-yl)pyridine] | – | > 5 µM | –
14 | CCOc1ccn(-c2ncc(CC)cn2)n1 [example 166, 2-(3-ethoxy-1H-pyrazol-1-yl)-5-ethylpyrimidine] | – | 0.5 to 5 µM (≈ 0.109 to 1.09 µg/mL) | –
15 | CCOc1nn(-c2ncc(CC)c(Cc3ccccc3)n2)cc1I [example 167, 4-benzyl-2-(3-ethoxy-4-iodo-1H-pyrazol-1-yl)-5-ethylpyrimidine] | – | 0.5 to 5 µM (≈ 0.217 to 2.17 µg/mL) | –
16 | COCc1c(Cc2ccccc2)c(OC(C)C)nn1-c1ncc(C2CC2)cn1 [example 168, 2-(4-benzyl-3-isopropoxy-5-(methoxymethyl)-1H-pyrazol-1-yl)-5-cyclopropylpyrimidine] | – | 0.05 to 0.5 µM (≈ 0.0189 to 0.189 µg/mL) | –
17 | CCN(CC)Cc1c(Cc2ccccc2)c(OC(C)C)nn1-c1ncc(C2CC2)cn1 [example 169, N-((4-benzyl-1-(5-cyclopropylpyrimidin-2-yl)-3-isopropoxy-1H-pyrazol-5-yl)methyl)-N-ethylethanamine] | – | > 5 µM | –
18 | CCOc1nn(-c2ccc(C(C)C)cn2)c(C)c1Cc1ccccc1 [example 170, 2-(4-benzyl-3-ethoxy-5-methyl-1H-pyrazol-1-yl)-5-isopropylpyridine] | – | 0.5 to 5 µM (≈ 0.168 to 1.68 µg/mL) | –
19 | CCOc1nn(-c2ncc(C)cn2)c(C)c1Cc1ccccc1 [example 171, 2-(4-benzyl-3-ethoxy-5-methyl-1H-pyrazol-1-yl)-5-methylpyrimidine] | – | 0.0005 to 0.05 µM (≈ 0.000154 to 0.0154 µg/mL) | –
20 | CCOc1nn(-c2ccc(C3CC3)cn2)c(C)c1Cc1ccccc1 [example 172, 2-(4-benzyl-3-ethoxy-5-methyl-1H-pyrazol-1-yl)-5-cyclopropylpyridine] | – | 0.05 to 0.5 µM (≈ 0.0167 to 0.167 µg/mL) | –
21 | COc1cnc(-n2nc(OC(C)C)c(Oc3c(F)cccc3F)c2C)cn1 [example 173, 2-(4-(2,6-difluorophenoxy)-3-isopropoxy-5-methyl-1H-pyrazol-1-yl)-5-methoxypyrazine] | – | 0.5 to 5 µM (≈ 0.188 to 1.88 µg/mL) | –

Row | Compound | IC50 (recombinant human DHODH) | MIC50 (measles virus) | IC50 (measles virus)
22 | COc1ccc(-n2nc(OC(C)C)c(Oc3c(F)cccc3F)c2C)nn1 [example 174, 3-(4-(2,6-difluorophenoxy)-3-isopropoxy-5-methyl-1H-pyrazol-1-yl)-6-methoxypyridazine] | – | 0.05 to 0.5 µM (≈ 0.0188 to 0.188 µg/mL) | –
23 | CCOc1ccc(-n2nc(OC(C)C)c(Oc3c(F)cccc3F)c2C)nn1 [example 174A, 3-(4-(2,6-difluorophenoxy)-3-isopropoxy-5-methyl-1H-pyrazol-1-yl)-6-ethoxypyridazine] | – | 0.05 to 0.5 µM (≈ 0.0195 to 0.195 µg/mL) | –
24 | CCOc1nn(-c2ncc(CC)c(C)n2)c(C)c1Cc1ccccc1 [example 175, 2-(4-benzyl-3-ethoxy-5-methyl-1H-pyrazol-1-yl)-5-ethyl-4-methylpyrimidine] | – | 0.0005 to 0.05 µM (≈ 0.000168 to 0.0168 µg/mL) | –
25 | CCOc1nn(-c2ccc(C3CC3)cn2)c(C)c1C(O)c1ccccc1 (stereo not shown) [example 177, (1-(5-cyclopropylpyridin-2-yl)-3-ethoxy-5-methyl-1H-pyrazol-4-yl)(phenyl)methanol] | – | 0.0005 to 0.05 µM (≈ 0.000175 to 0.0175 µg/mL) | –
26 | CCOc1nn(-c2ccc(C3CC3)cn2)c(C)c1C(C)(O)c1ccccc1 (stereo not shown) [example 178, 1-(1-(5-cyclopropylpyridin-2-yl)-3-ethoxy-5-methyl-1H-pyrazol-4-yl)-1-phenylethanol] | – | 0.5 to 5 µM (≈ 0.182 to 1.82 µg/mL) | –
27 | CC(C)Oc1nn(-c2ccc(C3CC3)cn2)cc1C(O)c1ccccc1 (stereo not shown) [example 179, (1-(5-cyclopropylpyridin-2-yl)-3-isopropoxy-1H-pyrazol-4-yl)(phenyl)methanol] | – | 0.05 to 0.5 µM (≈ 0.0175 to 0.175 µg/mL) | –
28 | CC(C)Oc1nn(-c2ccc(C3CC3)cn2)cc1S(=O)(=O)c1ccccc1 [example 180, 5-cyclopropyl-2-(3-isopropoxy-4-(phenylsulfonyl)-1H-pyrazol-1-yl)pyridine] | – | 0.05 to 0.5 µM (≈ 0.0192 to 0.192 µg/mL) | –
29 | CC(C)Oc1nn(-c2ccc(C3CC3)cn2)cc1[S+]([O-])c1ccccc1 (stereo not shown) [example 181, 5-cyclopropyl-2-(3-isopropoxy-4-(phenylsulfinyl)-1H-pyrazol-1-yl)pyridine] | – | 0.5 to 5 µM (≈ 0.184 to 1.84 µg/mL) | –
30 | CC(C)Oc1nn(-c2ncc(C3CC3)cn2)cc1[S+]([O-])c1ccccc1 (stereo not shown) [example 182, 5-cyclopropyl-2-(3-isopropoxy-4-(phenylsulfinyl)-1H-pyrazol-1-yl)pyrimidine] | – | 0.5 to 5 µM (≈ 0.184 to 1.84 µg/mL) | –
31 | CC(C)Oc1nn(-c2ncc(C3CC3)cn2)cc1S(=O)(=O)c1ccccc1 [example 183, 5-cyclopropyl-2-(3-isopropoxy-4-(phenylsulfonyl)-1H-pyrazol-1-yl)pyrimidine] | – | 0.0005 to 0.05 µM (≈ 0.000192 to 0.0192 µg/mL) | –
32 | COc1cc(C2CC2)cnc1-n1cc(Oc2ccccc2)c(OC(C)C)n1 [example 184, 5-cyclopropyl-2-(3-isopropoxy-4-phenoxy-1H-pyrazol-1-yl)-3-methoxypyridine] | – | 0.0005 to 0.05 µM (≈ 0.000183 to 0.0183 µg/mL) | –
33 | COc1cc(C2CC2)cnc1-n1cc(Oc2ccccc2F)c(OC(C)C)n1 [example 185, 5-cyclopropyl-2-(4-(2-fluorophenoxy)-3-isopropoxy-1H-pyrazol-1-yl)-3-methoxypyridine] | – | 0.05 to 0.5 µM (≈ 0.0192 to 0.192 µg/mL) | –
34 | Cc1c(Oc2c(F)cccc2F)c(OC(C)C)nn1-c1ncc(C2CC2)cc1OCc1ccccc1 [example 186, 3-(benzyloxy)-5-cyclopropyl-2-(4-(2,6-difluorophenoxy)-3-isopropoxy-5-methyl-1H-pyrazol-1-yl)pyridine] | – | 0.05 to 0.5 µM (≈ 0.0246 to 0.246 µg/mL) | –
35 | Cc1c(Oc2c(F)cccc2F)c(OC(C)C)nn1-c1ncc(C2CC2)cc1O [example 187, 5-cyclopropyl-2-(4-(2,6-difluorophenoxy)-3-isopropoxy-5-methyl-1H-pyrazol-1-yl)pyridin-3-ol] | – | 0.0005 to 0.05 µM (≈ 0.000201 to 0.0201 µg/mL) | –
36 | Cc1c(Oc2c(O)cccc2F)c(OC(C)C)nn1-c1ncc(C2CC2)cc1O [example 188, 5-cyclopropyl-2-(4-(2-fluoro-6-hydroxyphenoxy)-3-isopropoxy-5-methyl-1H-pyrazol-1-yl)pyridin-3-ol] | – | 0.0005 to 0.05 µM (≈ 0.0002 to 0.02 µg/mL) | –
37 | COc1cc(C2CC2)cnc1-n1nc(OC(C)C)c(Oc2c(F)cccc2F)c1C [example 189, 5-cyclopropyl-2-(4-(2,6-difluorophenoxy)-3-isopropoxy-5-methyl-1H-pyrazol-1-yl)-3-methoxypyridine] | – | 0.0005 to 0.05 µM (≈ 0.000208 to 0.0208 µg/mL) | –
38 | Cc1c(Oc2c(F)cccc2F)c(OC(C)C)nn1-c1ncc(C2CC2)cc1N(C)C [example 190, 5-cyclopropyl-2-(4-(2,6-difluorophenoxy)-3-isopropoxy-5-methyl-1H-pyrazol-1-yl)-N,N-dimethylpyridin-3-amine] | – | 0.0005 to 0.05 µM (≈ 0.000214 to 0.0214 µg/mL) | –
39 | CCCc1cnc(-n2nc(OC(C)C)c(Oc3c(F)cccc3F)c2C)c(F)c1 [example 190A, 2-(4-(2,6-difluorophenoxy)-3-isopropoxy-5-methyl-1H-pyrazol-1-yl)-3-fluoro-5-propylpyridine] | – | 0.05 to 0.5 µM (≈ 0.0203 to 0.203 µg/mL) | –
40 | CC(C)Oc1nn(-c2ccc(C3CC3)cn2)c(Cl)c1Oc1ccccc1 [example 191, 2-(5-chloro-3-isopropoxy-4-phenoxy-1H-pyrazol-1-yl)-5-cyclopropylpyridine] | – | 0.05 to 0.5 µM (≈ 0.0185 to 0.185 µg/mL) | –
41 | CC(C)Oc1nn(-c2ncc(C3CC3)cn2)c(Cl)c1Oc1ccccc1F [example 192, 2-(5-chloro-4-(2-fluorophenoxy)-3-isopropoxy-1H-pyrazol-1-yl)-5-cyclopropylpyrimidine] | – | 0.0005 to 0.05 µM (≈ 0.000194 to 0.0194 µg/mL) | –
42 | CCc1cnc(-n2nc(OCCO)c(Cc3ccccc3)c2C)nc1 [example 193, 2-(4-benzyl-1-(5-ethylpyrimidin-2-yl)-5-methyl-1H-pyrazol-3-yloxy)ethanol] | – | 0.05 to 0.5 µM (≈ 0.0169 to 0.169 µg/mL) | –

Source: patent EP2929883A1, “Pyrazole derivatives as dihydroorotate dehydrogenase (DHODH) inhibitors” (INSTITUT PASTEUR, priority 2014, dated 2015)
